# Experimental data taken from ChEMBL document CHEMBL1949499, “Nicotinic acids: liver-targeted SCD inhibitors with preclinical anti-diabetic efficacy” (Bioorg Med Chem Lett, 2011).
# Experiments:
# [1] = Drug uptake C57/BL6 in mouse left median liver lobe at 30 mg/kg, po after 6 hrs; assay type: ADME, organism-based; set-up: dose 30 mg/kg, route oral; details: read-out: Drug uptake
# [2] = Drug uptake in C57/BL6 mouse cerebellum at 30 mg/kg, po after 6 hrs; assay type: ADME, organism-based; set-up: dose 30 mg/kg, route oral; details: read-out: Drug uptake
# [3] = Drug uptake in high fat diet fed C57/BL6 mouse eDIO model whole blood at 30 mg/kg, po after 3 hrs; assay type: ADME, organism-based; set-up: dose 30 mg/kg, route oral; details: read-out: Drug uptake
# [4] = system: Nucleic Acid; test: Ratio of drug uptake in left median liver lobe to harderian gland in C57/BL6 mouse at 30 mg/kg, po after 6 hrs; assay type: ADME, organism-based; set-up: dose 30 mg/kg, route oral; details: in vivo
# [5] = system: Mus musculus; test: Inhibition of SCD activity in high sucrose/fat free diet fed C57/BL6 mouse liver assessed as reduction in conversion of [14C]stearic acid to [14C]oleic acid at 100 mg/kg, po; assay type: functional
# [6] = Drug uptake in C57/BL6 mouse left median liver lobe at 30 mg/kg, po after 2 hrs; assay type: ADME, organism-based; set-up: dose 30 mg/kg, route oral; details: read-out: Drug uptake
# [7] = Plasma concentration in C57/BL6 mouse at 30 mg/kg, po after 6 hrs; assay type: ADME, organism-based; set-up: dose 30 mg/kg, route oral
# [8] = Drug uptake in C57/BL6 mouse harderian glands at 30 mg/kg, po after 6 hrs; assay type: ADME, organism-based, Harderian gland; set-up: dose 30 mg/kg, route oral; details: read-out: Drug uptake
# [9] = system: Mus musculus; test: Inhibition of SCD activity in high sucrose/fat free diet fed C57/BL6 mouse liver assessed as reduction in conversion of [14C]stearic acid to [14C]oleic acid at 30 mg/kg, po; assay type: functional
# [10] = system: Mus musculus; test: Acute antidiabetic activity in high fat diet fed po dosed C57/BL6 mouse eDIO model assessed as increase in glucose clearance administered 1 hr prior to glucose challenge by oGTT assay; assay type: functional, organism-based
# [11] = Drug uptake in C57/BL6 mouse kidney at 30 mg/kg, po after 6 hrs; assay type: ADME, organism-based; set-up: dose 30 mg/kg, route oral; details: read-out: Drug uptake
# [12] = Drug uptake in C57/BL6 mouse left epididymal fat at 30 mg/kg, po after 2 hrs; assay type: ADME, organism-based, Epididymal fat pad; set-up: dose 30 mg/kg, route oral; details: male, read-out: Drug uptake
# [13] = Volume of distribution at steady state in C57/BL6 mouse at 10 mg/kg, po and 2 mg/kg, iv; assay type: ADME, organism-based; details: in vivo, read-out: Vdss
# [14] = Drug uptake in C57/BL6 mouse heart at 30 mg/kg, po after 2 hrs; assay type: ADME, organism-based; set-up: dose 30 mg/kg, route oral; details: read-out: Drug uptake
# [15] = Ratio of drug uptake in left median liver lobe to harderian gland in C57/BL6 mouse at 10 mg/kg, po after 6 hrs; assay type: ADME, organism-based; set-up: dose 10 mg/kg, route oral; details: in vivo
# [16] = Half life in Sprague-Dawley rat at 10 mg/kg, po and 2 mg/kg, iv; assay type: ADME, organism-based; details: in vivo
# [17] = Plasma concentration in high sucrose/fat free diet fed C57/BL6 mouse at 10 mg/kg, po after 3 hrs; assay type: ADME, organism-based; set-up: dose 10 mg/kg, route oral
# [18] = molecular target: T1, Stearoyl-CoA desaturase (Homo sapiens, UniProt O00767); test: Inhibition of human SCD1
# T1 sequence (O00767 whole entry): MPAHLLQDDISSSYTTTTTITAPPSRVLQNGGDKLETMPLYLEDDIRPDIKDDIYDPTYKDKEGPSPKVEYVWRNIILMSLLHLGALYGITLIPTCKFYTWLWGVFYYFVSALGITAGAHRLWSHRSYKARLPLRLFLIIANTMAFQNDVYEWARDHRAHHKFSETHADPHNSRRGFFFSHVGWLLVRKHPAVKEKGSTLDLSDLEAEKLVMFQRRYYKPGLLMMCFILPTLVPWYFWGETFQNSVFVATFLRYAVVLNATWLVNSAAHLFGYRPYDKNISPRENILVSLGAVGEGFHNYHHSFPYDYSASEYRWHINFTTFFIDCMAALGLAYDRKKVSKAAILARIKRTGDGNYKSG
# [19] = Drug uptake in C57/BL6 mouse harderian glands at 30 mg/kg, po after 2 hrs; assay type: ADME, organism-based, Harderian gland; set-up: dose 30 mg/kg, route oral; details: read-out: Drug uptake
# [20] = molecular target: T2, Acyl-CoA desaturase 1 (Mus musculus, UniProt P13516); test: Inhibition of mouse SCD1
# T2 sequence (P13516 whole entry): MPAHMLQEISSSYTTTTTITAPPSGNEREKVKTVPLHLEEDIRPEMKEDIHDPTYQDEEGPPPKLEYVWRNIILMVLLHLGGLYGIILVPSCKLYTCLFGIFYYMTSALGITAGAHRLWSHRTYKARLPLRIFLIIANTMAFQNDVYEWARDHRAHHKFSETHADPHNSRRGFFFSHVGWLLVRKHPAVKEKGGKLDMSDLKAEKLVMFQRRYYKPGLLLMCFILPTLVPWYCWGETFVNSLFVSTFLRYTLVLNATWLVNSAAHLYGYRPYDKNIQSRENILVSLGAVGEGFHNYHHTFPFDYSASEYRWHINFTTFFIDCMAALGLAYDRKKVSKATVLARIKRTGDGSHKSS
# [21] = Plasma concentration in high sucrose/fat free diet fed C57/BL6 mouse at 30 mg/kg, po after 3 hrs; assay type: ADME, organism-based; set-up: dose 30 mg/kg, route oral
# [22] = Drug uptake in C57/BL6 mouse kidney at 30 mg/kg, po after 24 hrs; assay type: ADME, organism-based; set-up: dose 30 mg/kg, route oral; details: read-out: Drug uptake
# [23] = molecular target: T3, Acyl-CoA desaturase 1 (Rattus norvegicus, UniProt P07308); test: Inhibition of rat SCD1
# T3 sequence (P07308 whole entry): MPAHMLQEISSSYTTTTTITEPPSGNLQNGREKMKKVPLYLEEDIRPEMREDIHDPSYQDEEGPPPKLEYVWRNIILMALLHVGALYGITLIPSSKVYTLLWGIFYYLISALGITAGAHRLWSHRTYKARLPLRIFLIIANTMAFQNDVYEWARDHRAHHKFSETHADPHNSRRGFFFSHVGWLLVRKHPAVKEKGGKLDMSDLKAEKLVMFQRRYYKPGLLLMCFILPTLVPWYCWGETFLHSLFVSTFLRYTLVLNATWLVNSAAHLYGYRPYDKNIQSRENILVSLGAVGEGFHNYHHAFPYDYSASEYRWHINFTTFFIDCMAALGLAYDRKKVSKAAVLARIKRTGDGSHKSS
# [24] = Drug uptake in C57/BL6 mouse cerebellum at 30 mg/kg, po after 2 hrs; assay type: ADME, organism-based; set-up: dose 30 mg/kg, route oral; details: read-out: Drug uptake
# [25] = system: Mus musculus; test: Inhibition of SCD activity in high sucrose/fat free diet fed C57/BL6 mouse liver assessed as reduction in conversion of [14C]stearic acid to [14C]oleic acid at 10 mg/kg, po; assay type: functional
# [26] = system: Nucleic Acid; test: Ratio of drug uptake in left median liver lobe to harderian gland in C57/BL6 mouse at 30 mg/kg, po after 2 hrs; assay type: ADME, organism-based; set-up: dose 30 mg/kg, route oral; details: in vivo
# [27] = Drug uptake in high sucrose/fat free diet fed C57/BL6 mouse liver at 30 mg/kg, po after 3 hrs; assay type: ADME, organism-based; set-up: dose 30 mg/kg, route oral; details: read-out: Drug uptake
# [28] = molecular target: T3, Acyl-CoA desaturase 1; test: Inhibition of SCD1 in Sprague-Dawley rat hepatocytes assessed as conversion of [14C]oleic acid formation by HPLC analysis; assay type: cell-based, Hepatocyte
structure (smiles),measurement,setting,value
O=C(O)c1cncc(-c2ccc(N3CCC(Oc4cc(F)ccc4Br)CC3)nn2)c1,concentration at 6 h,[1],5200 nM
same,concentration at 6 h,[2],17 nM
same,concentration at 3 h,[3],320 nM
same,Ratio,[4],> 50
same,inhibition in vivo at 100 mg/kg,[5],86%
same,concentration at 2 h,[6],4390 nM
same,concentration at 6 h,[7],626 nM
same,concentration at 6 h,[8],98 nM
same,inhibition in vivo at 30 mg/kg,[9],74%
same,Activity,[10],Dose-dependent effect
same,concentration at 6 h,[11],1920 nM
same,concentration at 2 h,[12],106 nM
same,Vd,[13],1.12 L/kg
same,concentration at 2 h,[14],177 nM
same,Ratio,[15],15
same,half-life,[16],1.4 h
same,concentration at 3 h,[17],120 nM
same,IC50,[18],7 nM
same,concentration at 2 h,[19],389 nM
same,IC50,[20],9 nM
same,concentration at 3 h,[21],450 nM
same,concentration at 24 h,[22],29 nM
same,IC50,[23],15 nM
same,concentration at 2 h,[24],10 nM
same,inhibition in vivo at 10 mg/kg,[25],25%
same,Ratio,[26],11
same,concentration at 3 h,[27],9290 nM
same,IC50,[28],175 nM
